Like-named read-outs stand apart in the source and are kept apart here.
What was measured:
[1] = test system: DMBA-induced breast cancer; format: in vivo; conditions: for changes in body weight: vs control; for general conditions: deaths: 15 rats; for day from which development of tumors was confirmed: control: day 35
Procedure: The antitumor effects of cellobiose were examined using the rat DMBA-induced breast cancer model. Specifically, 7-week-old female rats were grouped using body weight as an index, and then 7,12-dimethylbenz[a]anthracene (DMBA) (20 mg/mL/rat) was forcibly administered orally. Two doses of the test substance (4 and 40 mg/kg/day) were forcibly administered orally once a day from the day after grouping for 12 consecutive weeks.
Fifty-two 6-week-old female rats, Crl: CD (SD) (SPF), were purchased from Charles River Laboratories, Japan Inc. on Mar. 28, 2012 (Number of rats ordered: 50).
Animals, for which no abnormalities had been confirmed as a result of observation of general conditions during the quarantine and conditioning periods, were selected and then grouped by the stratified continuous randomization method using body weight as an index based on the following table of group composition (Table 1). The remaining animals were excluded from the test groups on the day of grouping and then disposed of after excessive euthanization with ether.
DMBA was weighed to the required amount using an electronic even Sartorius Laboratory balance (SARTORIUS K.K.). The weighed DMBA was added to a beaker containing sesame oil, and then the solution was stirred using a mighty magnetic stirrer (Koike precision instruments) until the DMBA was completely dissolved. After dissolution, the solution was transferred to a volumetric graduated cylinder and then diluted to a concentration of 20 mg/mL. Upon preparation, countermeasures were taken against chemical hazards to avoid inhalation and adhesion to skin by wearing masks, safety eyeglasses, and gloves. Preparation was performed before use. Any carcinogen remaining after administration was treated as medical waste.
The carcinogen was administered to each animal after grouping. Specifically, the carcinogen was forcibly administered orally at a dosage of 1 mL/animal using sonde for oral administration (disposable sonde for oral administration, FUCHIGAMI) and glass syringes (disposable syringes, TERUMO Corporation). Administration was performed using masks, safety eyeglasses and gloves in order to avoid inhalation and adhesion to skin.
Next, the test substance was weighed to the required amount using an electronic Sartorius Analytic balance (SARTORIUS K.K.), and then dissolved in the medium. The resultant was transferred to a volumetric graduated cylinder, and then diluted to concentrations of 0.8 mg/mL and 8.0 mg/mL. Preparation was performed before use. The solution of the test substance (to be administered) that had remained after administration was diluted with a large volume of tap water and then discarded.
Administration of the test substance began the day after grouping (designated as day 1). The test substance was forcibly administered orally once a day for 12 consecutive weeks.
Upon administration, the test substance solution was forcibly administered orally at 5 mL/kg/day using sonde for oral administration (disposable sonde for oral administration, FUCHIGAMI) and glass syringes (disposable syringes, TERUMO Corporation) according to the table of group composition. The fluid volume administered was calculated based on the body weight measured on the day closest to the date of administration.
After administration of the carcinogen, the general conditions were observed every day. Body weight was measured once a week.
When the development of tumors was confirmed, the number of tumors developed in each animal was measured, and then the tumor volume estimate (mm^3) of each tumor was calculated once a week. In addition, the tumor volume estimate (mm^3) of each tumor was found by shaving the hair around the relevant tumor, measuring the tumor size (major axis “a” and minor axis “b” (mm)) using a vernier caliper, calculating according to the following formula, and then finding the sum of tumor volume estimates of the tumors.
Tumor volume estimate (mm^3) of each tumor=0.5 ×a×b^2 […]

[2] = test system: HeLa (human cervical cancer-derived cell line); assay: XTT assay, effect on cell survival (HeLa); format: cell-based
From the text: (§1) The presence or the absence of the selective cytotoxic activity of the test substance (cellobiose) was examined on various established cell lines.
(§2) Cell species: HeLa (human cervical cancer-derived cell line), HaCaT (human-derived immortalized keratinocyte) and Hep-G2 (human liver cancer-derived cell line)
(§3) (Thawing and Passage Culture of Cells) • (1) HeLa, HaCaT, and Hep-G2 cells were thawed and then cultured in various specialized media. • (2) Cells were passaged 2 to 3 times. • (3) Cells that had recovered their growth capacity were used for the test. […]

[3] = test system: HaCaT (human-derived immortalized keratinocyte); assay: XTT assay, effect on cell survival (HaCaT); format: cell-based
From the text: as §1, §2, §3

[4] = test system: Hep-G2 (human liver cancer-derived cell line); assay: XTT assay, effect on cell survival (Hep-G2); format: cell-based
From the text: as §1, §2, §3

[5] = test system: HeLa cells; assay: Confirmation of the performance of cell proliferation kit (XTT) with HeLa; format: cell-based, human; conditions: 500 μM, 3 hours
Procedure: (Confirmation of the Performance of Cell Proliferation Kit (XTT)) • (1) HeLa cells were seeded in 16 wells of a 96-well plate at 1×10^4 cells/100 μL/well. • (2) Cells were cultured for 24 hours in a CO2 incubator. • (3) Dexamethasone was added at […] concentrations of 0 (control), 10, 100, and 500 μM (N=4). • (4) After addition, cells were cultured for 3 hours in the CO2 incubator. • (5) 50 μL of an XTT reagent was added. • (6) After addition, cells were cultured for 3 hours in the CO2 incubator. • (7) Absorbance was measured at 450 nm to 500 nm (ref.: 630 nm to 690 nm).

[6] = any concentration (0.001-10 mg/mL), vs cells before addition

## O=C[C@H](O)[C@@H](O)[C@H](O[C@@H]1O[C@H](CO)[C@@H](O)[C@H](O)[C@H]1O)[C@H](O)CO [cellobiose]
[1]; 4 and 40 mg/kg/day oral, 12 weeks
  effect on development of breast cancer induced by DMBA (overall conclusion): suppresses the development of breast cancer that is induced by carcinogenic DMBA
[1]; high-dose group 40 mg/kg/day oral once a day, 12 weeks
  changes in body weight: very similar changes to the control group
[1]; high-dose group 40 mg/kg/day oral
  general conditions: deaths: one death was confirmed on day 76
[1]; high-dose group 40 mg/kg/day
  day from which development of tumors was confirmed: 49 days
[1]; high-dose group 40 mg/kg/day, day 49
  number of animals having developed tumors: 2
[1]; high-dose group 40 mg/kg/day, day 84
  number of animals having developed tumors: 11
[1]; high-dose group 40 mg/kg/day, days 42 and 49
  tumor volume estimate vs control: significantly lower than those of the control group
[1]; high-dose group 40 mg/kg/day, until day 42
  number of animals having developed tumors: no development of tumors was confirmed until day 42
[1]; low-dose group 4 mg/kg/day oral once a day, 12 weeks
  changes in body weight: very similar changes to the control group
[1]; low-dose group 4 mg/kg/day oral
  general conditions: deaths: one death was confirmed on day 4
[1]; low-dose group 4 mg/kg/day, autopsy after 12 weeks
  wet weight of tumor vs control: very similar to those of the control group
[1]; low-dose group 4 mg/kg/day
  day from which development of tumors was confirmed: 49 days
[1]; low-dose group 4 mg/kg/day, day 42
  tumor volume estimate vs control: significantly lower than those of the control group
[1]; low-dose group 4 mg/kg/day, day 49
  number of animals having developed tumors: 4
[1]; low-dose group 4 mg/kg/day, day 84
  number of animals having developed tumors: 11
[1]; low-dose group 4 mg/kg/day, until day 42
  number of animals having developed tumors: no development of tumors was confirmed until day 42
[2]; 10 mg/mL, 3 hours, XTT
  change in survival rate compared to the control: almost no change in survival rate
[2]; [6]
  dead cells or cell morphological changes (photomicrographs): no influence of other factors such as an increase in dead cells or cell morphological changes
[3]; 10 mg/mL, 3 hours, XTT
  change in survival rate compared to the control: almost no change in survival rate
[3]; [6]
  dead cells or cell morphological changes (photomicrographs): no influence of other factors such as an increase in dead cells or cell morphological changes
[4]; Hep-G2, any concentration (0.001-10 mg/mL), vs cells before addition
  dead cells or cell morphological changes (photomicrographs): no influence of other factors such as an increase in dead cells or cell morphological changes
[4]; Hep-G2, high concentration of test substance, 3 hours, XTT
  decrease in survival rate (maximum): ~15%

## C[C@@H]1C[C@H]2[C@@H]3CCC4=CC(=O)C=C[C@]4(C)[C@@]3(F)[C@@H](O)C[C@]2(C)[C@@]1(O)C(=O)CO [dexamethasone]
[5]
  decrease in survival rate: about 40%
